What all share (assay): relative viability (nuclei count vs DMSO), 5 days (fraction); higher = more cells survive
Compound in the test “Ponatinib + Olaparib”: Cc1ccc(C(=O)Nc2ccc(CN3CCN(C)CC3)c(C(F)(F)F)c2)cc1C#Cc1cnc2cccnn12 [Ponatinib] + O=C(c1cc(Cc2n[nH]c(=O)c3ccccc23)ccc1F)N1CCN(C(=O)C2CC2)CC1 [Olaparib] (partner 8 µM)
The gist of the method:
(§1)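 Medians of duplicate plates are given as relative viability. That measure is the nuclei count in treated wells divided by the count in vehicle wells. Counts were taken on 4× images of lung cancer cell lines in 1536-well plates, 5 days after pin-tool dosing the day after seeding with one drug alone or a fixed anchor-drug dose plus five library-drug doses (not always all listed) in √10 steps.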

Compound in the test “Pazopanib + Trametinib”: Cc1ccc(Nc2nccc(N(C)c3ccc4c(C)n(C)nc4c3)n2)cc1S(N)(=O)=O [Pazopanib] + CC(=O)Nc1cccc(-n2c(=O)n(C3CC3)c(=O)c3c(Nc4ccc(I)cc4F)n(C)c(=O)c(C)c32)c1 [Trametinib] (partner 0.02 µM)
The method, boiled down: as §1

Compound in the test “Pazopanib + Crizotinib”: Cc1ccc(Nc2nccc(N(C)c3ccc4c(C)n(C)nc4c3)n2)cc1S(N)(=O)=O [Pazopanib] + C[C@@H](Oc1cc(-c2cnn(C3CCNCC3)c2)cnc1N)c1c(Cl)ccc(F)c1Cl [Crizotinib] (partner 1 µM)
The method, boiled down:
as §1

Compound in the test “Pazopanib + OSI-027”: Cc1ccc(Nc2nccc(N(C)c3ccc4c(C)n(C)nc4c3)n2)cc1S(N)(=O)=O [Pazopanib] + COc1cccc2cc(-c3nc([C@H]4CC[C@H](C(=O)O)CC4)n4ncnc(N)c34)[nH]c12 [OSI-027] (partner 0.5 µM)
The method, boiled down:
as §1

For NCI-H2170, the relative viability in the test with Ponatinib + Olaparib (first compound 0.002 µM) was found to be 0.583; in the test with Ponatinib + Olaparib (first compound 0.006325 µM) it was 0.599; in the test with Ponatinib + Olaparib (first compound 0.06325 µM), 0.631; with Ponatinib + Olaparib (first compound 0.2 µM) it was 0.639; with Pazopanib + Trametinib (first compound 0.01 µM) it was 0.909; with Pazopanib + Trametinib (first compound 0.03162 µM), 0.909. For the same cell line, the relative viability is 0.949 with Pazopanib + Trametinib (first compound 0.1 µM); 0.97 with Pazopanib + Trametinib (first compound 0.3162 µM); 0.919 in the test with Pazopanib + Trametinib (first compound 1 µM); 1.21 with Pazopanib + Crizotinib (first compound 0.01 µM); 1.32 with Pazopanib + Crizotinib (first compound 0.03162 µM); 1.26 with Pazopanib + Crizotinib (first compound 0.1 µM). For the same cell line, the relative viability with Pazopanib + Crizotinib (first compound 0.3162 µM) was 1.15; with Pazopanib + Crizotinib (first compound 1 µM) it was 1.14; with Pazopanib + OSI-027 (first compound 0.01 µM) it was 0.728; in the test with Pazopanib + OSI-027 (first compound 0.03162 µM), 0.695; with Pazopanib + OSI-027 (first compound 0.1 µM), 0.719; with Pazopanib + OSI-027 (first compound 0.3162 µM), 0.703. For the same cell line, the relative viability with Pazopanib + OSI-027 (first compound 1 µM) was found to be 0.655.
For the cell line NCI-H1299, the relative viability with Ponatinib + Olaparib (first compound 0.002 µM) turned out to be 0.981; with Ponatinib + Olaparib (first compound 0.006325 µM), 0.955; with Ponatinib + Olaparib (first compound 0.06325 µM), 0.938; with Ponatinib + Olaparib (first compound 0.2 µM), 0.876; with Pazopanib + Crizotinib (first compound 0.01 µM) it was 0.983; with Pazopanib + Crizotinib (first compound 0.03162 µM), 0.913. For the same cell line, the values for the relative viability with Pazopanib + Crizotinib (first compound 0.1 µM), with Pazopanib + Crizotinib (first compound 0.3162 µM) and with Pazopanib + Crizotinib (first compound 1 µM) were 0.921, 0.969 and 0.892, respectively.
For ABC-1, the relative viability with Ponatinib + Olaparib (first compound 0.002 µM) was 0.893; with Ponatinib + Olaparib (first compound 0.006325 µM), 0.776; in the test with Ponatinib + Olaparib (first compound 0.06325 µM), 0.776; with Ponatinib + Olaparib (first compound 0.2 µM), 0.693; with Pazopanib + Crizotinib (first compound 0.01 µM), 1.27; with Pazopanib + Crizotinib (first compound 0.03162 µM), 1.04. Also, the relative viability with Pazopanib + Crizotinib (first compound 0.1 µM) stood at 0.873; with Pazopanib + Crizotinib (first compound 0.3162 µM) it was 0.986; with Pazopanib + Crizotinib (first compound 1 µM) it was 1.11; in the test with Pazopanib + OSI-027 (first compound 0.01 µM), 0.367; in the test with Pazopanib + OSI-027 (first compound 0.03162 µM) it was 0.572; with Pazopanib + OSI-027 (first compound 0.3162 µM) it was 0.668. Also, the relative viability with Pazopanib + OSI-027 (first compound 1 µM) was 0.579.
SW 900: the relative viability with Ponatinib + Olaparib (first compound 0.002 µM) amounted to 0.958; with Ponatinib + Olaparib (first compound 0.006325 µM), 0.867; in the test with Ponatinib + Olaparib (first compound 0.06325 µM), 0.95; with Ponatinib + Olaparib (first compound 0.2 µM), 0.725; with Pazopanib + Trametinib (first compound 0.01 µM), 1.03; in the test with Pazopanib + Trametinib (first compound 0.03162 µM) it was 0.837. The relative viability with Pazopanib + Trametinib (first compound 0.3162 µM) came out at 0.974; with Pazopanib + Trametinib (first compound 1 µM), 1.03; in the test with Pazopanib + OSI-027 (first compound 0.01 µM) it was 0.478; with Pazopanib + OSI-027 (first compound 0.03162 µM) it was 0.535; with Pazopanib + OSI-027 (first compound 0.1 µM) it was 0.515; with Pazopanib + OSI-027 (first compound 0.3162 µM) it was 0.588. For the same cell line, in the test with Pazopanib + OSI-027 (first compound 1 µM), the relative viability turned out to be 0.565.
Turning to NCI-H1563, the relative viability in the test with Pazopanib + Crizotinib (first compound 0.01 µM) stood at 0.963; in the test with Pazopanib + Crizotinib (first compound 0.03162 µM) it was 0.88; in the test with Pazopanib + Crizotinib (first compound 0.1 µM), 0.894; with Pazopanib + Crizotinib (first compound 0.3162 µM) it was 0.878; in the test with Pazopanib + Crizotinib (first compound 1 µM), 0.888; in the test with Pazopanib + OSI-027 (first compound 0.01 µM) it was 0.716. Also, the relative viability is 0.802 with Pazopanib + OSI-027 (first compound 0.03162 µM), 0.788 with Pazopanib + OSI-027 (first compound 0.1 µM), 0.802 with Pazopanib + OSI-027 (first compound 0.3162 µM) and 0.734 in the test with Pazopanib + OSI-027 (first compound 1 µM).
For A549, the relative viability came to 0.299 with Ponatinib + Olaparib (first compound 0.002 µM); 0.384 in the test with Ponatinib + Olaparib (first compound 0.006325 µM); 0.394 with Ponatinib + Olaparib (first compound 0.06325 µM); 0.384 with Ponatinib + Olaparib (first compound 0.2 µM); 0.813 with Pazopanib + Crizotinib (first compound 0.01 µM); 0.855 with Pazopanib + Crizotinib (first compound 0.03162 µM). Besides, the relative viability is 0.709 in the test with Pazopanib + Crizotinib (first compound 0.1 µM), 0.692 with Pazopanib + Crizotinib (first compound 0.3162 µM) and 0.732 in the test with Pazopanib + Crizotinib (first compound 1 µM).
Consider NCI-H2342, for which the relative viability in the test with Ponatinib + Olaparib (first compound 0.002 µM) amounted to 0.473; with Ponatinib + Olaparib (first compound 0.006325 µM) it was 0.483; with Ponatinib + Olaparib (first compound 0.06325 µM) it was 0.424; with Ponatinib + Olaparib (first compound 0.2 µM) it was 0.467; with Pazopanib + Trametinib (first compound 0.01 µM) it was 0.778; in the test with Pazopanib + Trametinib (first compound 0.03162 µM), 0.918. The relative viability turned out to be 0.821 with Pazopanib + Trametinib (first compound 0.1 µM); 0.754 with Pazopanib + Trametinib (first compound 0.3162 µM); 0.674 with Pazopanib + Trametinib (first compound 1 µM); 0.535 in the test with Pazopanib + OSI-027 (first compound 0.01 µM); 0.665 with Pazopanib + OSI-027 (first compound 0.03162 µM); 0.564 with Pazopanib + OSI-027 (first compound 0.1 µM). Further, the figures for the relative viability with Pazopanib + OSI-027 (first compound 0.3162 µM) and with Pazopanib + OSI-027 (first compound 1 µM) were 0.624 and 0.524, respectively.
For the cell line NCI-H1623, the relative viability came to 0.415 in the test with Pazopanib + OSI-027 (first compound 0.01 µM); 0.401 with Pazopanib + OSI-027 (first compound 0.03162 µM); 0.421 with Pazopanib + OSI-027 (first compound 0.1 µM); 0.448 with Pazopanib + OSI-027 (first compound 0.3162 µM); 0.411 with Pazopanib + OSI-027 (first compound 1 µM).
For NCI-H522, the relative viability in the test with Ponatinib + Olaparib (first compound 0.002 µM) amounted to 0.731; with Ponatinib + Olaparib (first compound 0.006325 µM), 0.708; in the test with Ponatinib + Olaparib (first compound 0.06325 µM) it was 0.632; in the test with Ponatinib + Olaparib (first compound 0.2 µM), 0.507; in the test with Pazopanib + Trametinib (first compound 0.01 µM) it was 0.727; with Pazopanib + Trametinib (first compound 0.03162 µM), 0.771. For the same cell line, the relative viability came out at 0.735 in the test with Pazopanib + Trametinib (first compound 0.1 µM); 0.786 in the test with Pazopanib + Trametinib (first compound 0.3162 µM); 0.811 with Pazopanib + Trametinib (first compound 1 µM); 0.705 with Pazopanib + OSI-027 (first compound 0.01 µM); 0.662 in the test with Pazopanib + OSI-027 (first compound 0.03162 µM); 0.705 with Pazopanib + OSI-027 (first compound 0.1 µM). The relative viability came out at 0.636 in the test with Pazopanib + OSI-027 (first compound 0.3162 µM) and 0.775 in the test with Pazopanib + OSI-027 (first compound 1 µM).
As to NCI-H1793, the relative viability with Ponatinib + Olaparib (first compound 0.002 µM) was 0.882; in the test with Ponatinib + Olaparib (first compound 0.006325 µM), 0.986; with Ponatinib + Olaparib (first compound 0.06325 µM) it was 1.01; with Ponatinib + Olaparib (first compound 0.2 µM), 0.756; with Pazopanib + Trametinib (first compound 0.03162 µM), 0.425; with Pazopanib + Trametinib (first compound 0.1 µM), 0.411. Also, the relative viability in the test with Pazopanib + Trametinib (first compound 0.3162 µM) came out at 0.404; with Pazopanib + Trametinib (first compound 1 µM), 0.502; in the test with Pazopanib + OSI-027 (first compound 0.03162 µM) it was 0.254; with Pazopanib + OSI-027 (first compound 0.1 µM) it was 0.274; with Pazopanib + OSI-027 (first compound 0.3162 µM), 0.354; with Pazopanib + OSI-027 (first compound 1 µM) it was 0.273.
Turning to IA-LM, the relative viability was found to be 0.705 in the test with Ponatinib + Olaparib (first compound 0.002 µM); 0.835 with Ponatinib + Olaparib (first compound 0.006325 µM); 0.785 with Ponatinib + Olaparib (first compound 0.06325 µM); 0.646 in the test with Ponatinib + Olaparib (first compound 0.2 µM); 0.93 in the test with Pazopanib + Crizotinib (first compound 0.01 µM); 0.938 with Pazopanib + Crizotinib (first compound 0.1 µM). Further, the relative viability in the test with Pazopanib + Crizotinib (first compound 0.3162 µM) stood at 0.843; with Pazopanib + Crizotinib (first compound 1 µM), 0.659.
For the cell line EBC-1, the relative viability turned out to be 0.625 with Ponatinib + Olaparib (first compound 0.002 µM); 0.756 in the test with Ponatinib + Olaparib (first compound 0.006325 µM); 0.77 with Ponatinib + Olaparib (first compound 0.06325 µM); 0.644 with Ponatinib + Olaparib (first compound 0.2 µM); 0.224 with Pazopanib + Crizotinib (first compound 0.01 µM); 0.202 in the test with Pazopanib + Crizotinib (first compound 0.03162 µM). For the same cell line, the relative viability amounted to 0.197 with Pazopanib + Crizotinib (first compound 0.1 µM), 0.184 with Pazopanib + Crizotinib (first compound 0.3162 µM) and 0.187 with Pazopanib + Crizotinib (first compound 1 µM).

For the origin of these results see the supplement of paper PMC10307832.
